“And” between values parts separate entries of the source, which are not always exact repeats. Equal values may be shown once. Toxic doses and inconclusive results are not listed.

The experiment deals with L1210 leukemia ip in BDF1 mice, survival T/C. The experiment in a line: NCI In Vivo Anticancer Drug Screen. Data for tumor model L1210 Leukemia (intraperitoneal) in B6D2F1 (BDF1) mice. The settings on record: endpoint: mean survival time, higher = longer survival. The procedure, abridged: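 Transplanted-tumor mice were given test agent; controls received vehicle only. Survival readings from the two groups were divided (treated over control).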

Where [1] appears, read: dose: 100.0 mg/kg/injection, schedule: Q04DX003 (ip), vehicle: Klucel (hydroxypropylcellulose) (HPC).
Where [2] appears, read: dose: 200.0 mg/kg/injection, schedule: Q04DX003 (ip), vehicle: Klucel (hydroxypropylcellulose) (HPC).
[3] abbreviates: dose: 400.0 mg/kg/injection, schedule: Q04DX003 (ip), vehicle: Klucel (hydroxypropylcellulose) (HPC).
Where [4] appears, read: dose: 100.0 mg/kg/injection, schedule: Q01DX009 (ip), vehicle: Klucel (hydroxypropylcellulose) (HPC).
Where [5] appears, read: dose: 200.0 mg/kg/injection, schedule: Q01DX009 (ip), vehicle: Klucel (hydroxypropylcellulose) (HPC).
[6] abbreviates: dose: 400.0 mg/kg/injection, schedule: Q01DX009 (ip), vehicle: Klucel (hydroxypropylcellulose) (HPC).
Setting [7] is: dose: 100.0 mg/kg/injection, schedule: Q01DX001 (ip), vehicle: Klucel (hydroxypropylcellulose) (HPC).
The mark [8] stands for this setting: dose: 200.0 mg/kg/injection, schedule: Q01DX001 (ip), vehicle: Klucel (hydroxypropylcellulose) (HPC).
The mark [9] stands for this setting: dose: 400.0 mg/kg/injection, schedule: Q01DX001 (ip), vehicle: Klucel (hydroxypropylcellulose) (HPC).
The mark [10] stands for this setting: dose: 100.0 mg/kg/injection, schedule: Q04DX002 (ip), vehicle: Klucel (hydroxypropylcellulose) (HPC).
Where [11] appears, read: dose: 200.0 mg/kg/injection, schedule: Q04DX002 (ip), vehicle: Klucel (hydroxypropylcellulose) (HPC).
The mark [12] stands for this setting: dose: 400.0 mg/kg/injection, schedule: Q04DX002 (ip), vehicle: Klucel (hydroxypropylcellulose) (HPC).
Where [13] appears, read: dose: 50.0 mg/kg/injection, schedule: Q01DX001 (ip), vehicle: carboxymethylcellulose (CMC).
Where [14] appears, read: dose: 100.0 mg/kg/injection, schedule: Q01DX001 (ip), vehicle: carboxymethylcellulose (CMC).
Setting [15] is: dose: 200.0 mg/kg/injection, schedule: Q01DX001 (ip), vehicle: carboxymethylcellulose (CMC).
[16] abbreviates: dose: 400.0 mg/kg/injection, schedule: Q01DX001 (ip), vehicle: carboxymethylcellulose (CMC).
The mark [17] stands for this setting: dose: 100.0 mg/kg/injection, schedule: Q01DX009 (ip), vehicle: saline.
Where [18] appears, read: dose: 100.0 mg/kg/injection, schedule: Q04DX003 (ip), vehicle: saline.
[19] abbreviates: dose: 200.0 mg/kg/injection, schedule: Q01DX009 (ip), vehicle: saline.
[20] abbreviates: dose: 200.0 mg/kg/injection, schedule: Q04DX003 (ip), vehicle: saline.

Take `CSc1ccc(C2CCCCC2OS(C)(=O)=O)cc1` (stereo unspecified): the T/C was 95 % of control under setting [1], 92 % of control under setting [2] and 95 % of control under setting [3].
With `O=C1C=C(Nc2ccc(S(=O)(=O)N(CCCl)CCCl)cc2)c2ccccc2C1=O`, the T/C was 97 % of control under setting [4], 100 % of control under setting [5] and 102 % of control under setting [6].
Regarding `CC1CCc2cccc(NC(=O)NCCCl)c21` (stereo unspecified), the T/C runs as follows: under setting [7], 99 % of control; under setting [1], 92 % of control; under setting [8], 91 % of control; under setting [2], 92 % of control; under setting [9], 96 % of control; under setting [3], 92 % of control.
With `COc1ccccc1/C(=C/c1ccc([N+](=O)[O-])cc1)C(=O)O`, the T/C by setting is: under setting [7], 100 % of control; under setting [4], 97 % of control and 100 % of control; under setting [10], 101 % of control and 107 % of control; under setting [1], 97 % of control; under setting [8], 94 % of control; under setting [5], 95 % of control and 103 % of control. For the same compound, the T/C by setting is: under setting [11], 102 % of control and 103 % of control; under setting [2], 100 % of control; under setting [9], 94 % of control; under setting [6], 100 % of control; under setting [12], 97 % of control and 104 % of control; under setting [3], 101 % of control.
Consider `Cc1cc(S(=O)(=O)F)cc(Cl)c1S`, for which the T/C is, setting by setting: (dose: 25.0 mg/kg/injection, schedule: Q04DX002 (ip), vehicle: saline with Tween-80) 99 % of control; (dose: 50.0 mg/kg/injection, schedule: Q04DX002 (ip), vehicle: saline with Tween-80) 92 % of control.
Consider `Cn1c(=O)c2ncn(CC3CCCCC3)c2n(C)c1=O`, for which the T/C reads like this: under setting [13], 87 % of control; under setting [14], 90 % of control; under setting [15], 86 % of control.
In the case of `O=NN(CCCl)C(=O)Nc1ccc(Cl)c(Cl)c1`, the T/C runs as follows: (dose: 5.0 mg/kg/injection, schedule: Q01DX009 (ip), vehicle: carboxymethylcellulose (CMC)) 121 % of control; (dose: 8.0 mg/kg/injection, schedule: Q01DX009 (ip), vehicle: carboxymethylcellulose (CMC)) 114 % of control; (dose: 17.0 mg/kg/injection, schedule: Q01DX015 (ip), vehicle: carboxymethylcellulose (CMC)) 114 % of control; (dose: 26.0 mg/kg/injection, schedule: Q01DX015 (ip), vehicle: carboxymethylcellulose (CMC)) 163 % of control and 167 % of control; (dose: 39.0 mg/kg/injection, schedule: Q01DX015 (ip), vehicle: carboxymethylcellulose (CMC)) 119 % of control and 121 % of control; (dose: 58.0 mg/kg/injection, schedule: Q01DX015 (ip), vehicle: carboxymethylcellulose (CMC)) 117 % of control and 89 % of control. Also, the T/C is, setting by setting: under setting [14], 116 % of control; under setting [15], 161 % of control; (dose: 300.0 mg/kg/injection, schedule: Q01DX001 (ip), vehicle: carboxymethylcellulose (CMC)) 89 % of control.
As to `CCc1ccccc1NC(=O)Nc1cc(C)ccn1`, the T/C under setting [4] is 102 % of control; the T/C under setting [10] was 102 % of control; the T/C under setting [5] was 107 % of control; the T/C under setting [11] is 102 % of control; the T/C under setting [6] was 102 % of control; the T/C under setting [12] was 106 % of control.
`Cc1cc(C)c(-c2c(O)c(Br)c(-c3c(C)cc(C)c(Br)c3C)c(O)c2Br)c(C)c1Br`: the T/C is 100 % of control (dose: 12.5 mg/kg/injection, schedule: Q01DX009 (ip), vehicle: Klucel (hydroxypropylcellulose) (HPC)); 100 % of control (dose: 12.5 mg/kg/injection, schedule: Q04DX003 (ip), vehicle: Klucel (hydroxypropylcellulose) (HPC)); 103 % of control (dose: 25.0 mg/kg/injection, schedule: Q01DX009 (ip), vehicle: Klucel (hydroxypropylcellulose) (HPC)); 97 % of control (dose: 25.0 mg/kg/injection, schedule: Q04DX003 (ip), vehicle: Klucel (hydroxypropylcellulose) (HPC)); 94 % of control (dose: 50.0 mg/kg/injection, schedule: Q01DX009 (ip), vehicle: Klucel (hydroxypropylcellulose) (HPC)); 102 % of control (dose: 50.0 mg/kg/injection, schedule: Q04DX003 (ip), vehicle: Klucel (hydroxypropylcellulose) (HPC)). For the same compound, the T/C (dose: 75.0 mg/kg/injection, schedule: Q01DX009 (ip), vehicle: Klucel (hydroxypropylcellulose) (HPC)) is 120 % of control.
`CCCCCCCCCCCCCCCCCC(=O)OCC(O)COC(C)=O` (stereo unspecified): the T/C (dose: 12.5 mg/kg/injection, schedule: Q01DX009 (ip), vehicle: saline with Tween-80) is 98 % of control; the T/C (dose: 25.0 mg/kg/injection, schedule: Q01DX009 (ip), vehicle: saline with Tween-80) was 95 % of control; the T/C (dose: 50.0 mg/kg/injection, schedule: Q01DX009 (ip), vehicle: saline with Tween-80) was 95 % of control; the T/C (dose: 100.0 mg/kg/injection, schedule: Q01DX009 (ip), vehicle: saline with Tween-80) is 91 % of control; the T/C (dose: 200.0 mg/kg/injection, schedule: Q01DX009 (ip), vehicle: saline with Tween-80) was 91 % of control.
Turning to `COc1cc(/C=c2\[nH]c(=O)/c(=C/c3cc(OC)c(OC)c(OC)c3)[nH]c2=O)cc(OC)c1OC`, the T/C reads like this: under setting [4], 86 % of control; under setting [1], 93 % of control; under setting [2], 93 % of control; under setting [6], 87 % of control; under setting [3], 88 % of control.
For `CC1=C(C(=O)O)C(c2ccccc2)CC(=O)N1` (stereo unspecified), the T/C under setting [13] was 96 % of control, the T/C under setting [14] is 104 % of control, the T/C under setting [15] was 98 % of control and the T/C under setting [16] was 98 % of control.
Turning to `Nc1nc(N)nc(-c2ccccc2NC(=O)c2ccccc2N)n1`, the T/C reads like this: under setting [4], 95 % of control; under setting [1], 103 % of control; under setting [5], 91 % of control; under setting [2], 101 % of control; under setting [6], 101 % of control; under setting [3], 95 % of control.
Regarding `CCOP(N)(=O)SCC` (stereo unspecified), the T/C (dose: 5.0 mg/kg/injection, schedule: Q01DX001 (ip), vehicle: saline) was 110 % of control.
On to `Cn1cnc([N+](=O)[O-])c1Cl`, for which the T/C is 102 % of control (dose: 50.0 mg/kg/injection, schedule: Q01DX009 (ip), vehicle: saline); 103 % of control under setting [17]; 94 % of control under setting [18]; 92 % of control under setting [19]; 102 % of control under setting [20].
For the compound `Cc1cc(C)c(B(O)O)c(C)c1`, the T/C under setting [17] is 100 % of control; the T/C under setting [18] was 105 % of control; the T/C under setting [19] is 96 % of control; the T/C under setting [20] is 100 % of control; the T/C (dose: 400.0 mg/kg/injection, schedule: Q01DX009 (ip), vehicle: saline) is 103 % of control; the T/C (dose: 400.0 mg/kg/injection, schedule: Q04DX003 (ip), vehicle: saline) is 102 % of control.
Turning to `Nc1ccccc1C(=O)O`, the T/C reads like this: under setting [13], 98 % of control; under setting [14], 91 % of control; (dose: 178.0 mg/kg/injection, schedule: Q01DX001 (ip), vehicle: carboxymethylcellulose (CMC)) 92 % of control; under setting [15], 91 % of control; (dose: 267.0 mg/kg/injection, schedule: Q01DX001 (ip), vehicle: carboxymethylcellulose (CMC)) 94 % of control; under setting [16], 92 % of control. Moreover, the T/C (dose: 600.0 mg/kg/injection, schedule: Q01DX001 (ip), vehicle: carboxymethylcellulose (CMC)) is 92 % of control.
`CC(C)N=C(N)CSS(=O)(=O)O`: the T/C is 101 % of control (dose: 25.0 mg/kg/injection, schedule: Q04DX002 (ip), vehicle: Klucel (hydroxypropylcellulose) (HPC)); 97 % of control (dose: 50.0 mg/kg/injection, schedule: Q04DX002 (ip), vehicle: Klucel (hydroxypropylcellulose) (HPC)); 101 % of control and 102 % of control under setting [10].
As to `Cc1ccc(C(=O)c2ccc3c4c(cccc24)CC3)cc1`, the T/C by setting is: under setting [1], 112 % of control; under setting [2], 88 % of control; under setting [3], 100 % of control.

These data come from PubChem BioAssay AID248 (DTP/NCI, 2004).
